Where a name gives a salt, the structure may show the parent alone.
Key:
TNF-α production = assay: In-Vitro Whole Cell Assay for TNF-α Inhibition (LPS-stimulated PBMC, ELISA); type: cell-based; details: LPS overnight, TNF-α by ELISA
Procedure: B. In-Vitro Whole Cell Assay for TNF-α Inhibition
Freshly obtained venous blood was anticoagulated with heparin, diluted with an equal volume of phosphate buffered saline (“PBS”) and placed in a sterile tube or other container. Aliquots (30 mL) of this mixture were transferred to centrifuge tubes which were underlaid with Ficoll-Hypaque (15 mL). The prepared tubes were centrifuged at 400×g, without braking, for 30 min at room temperature. Approximately ½ to ⅔ of the platelet layer above the mononuclear cell band was removed with a pipette. The majority of the mononuclear cell layer was carefully removed using a pipette and these PBMC's were diluted with PBS and spun at 600×g for 15 min. The resulting PBMC's were washed with another portion of PBS and spun at 400×g for 10 min at room temperature. The recovered pellets were diluted in low endotoxin RPMI/1% FCS culture medium, and gave a cell concentration of 0.5-2.0×10^6 PMBC/mL. A small volume of the suspension was removed for counting on a hemocytometer and the remaining preparation was centrifuged at 200×g for 15 min at room temperature. The recovered pelleted PMBC's were resuspended in RPMI/1% FCS to a concentration of 1.67×10^6/mL.
To run the assay, the PBMC suspension (180 μL) was transferred to duplicate wells of a 96-well flat-bottom microtiter plate and incubated for 1 h at 37° C. A solution of test compound (10 μL: prepared at 20× the desired final concentration) was added to each well and the plate was incubated for 1 h at 37° C. A solution (10 μL) of LPS in RPMI/1% FCS (200 ng/mL) was added and the wells were incubated overnight at 37° C. The supernate (100 μL) was removed from each well and diluted with RPMI/1% FCS (400 μL). The samples were analyzed for TNF-α using a commercial ELISA kit (Genzyme).
The compounds were tested for their ability to inhibit TNF-α production. The IC50 nM results are listed for the indicated compounds.

[1] = tested on: LPS-induced TNF-α production; assay: In Vivo Rodent Assay for Inhibition of TNF-α Production (mice); set-up: species or system Mice (BALB/cJ females); details: oral dosing, LPS 1 mg/kg i.p., serum TNF-α; for inhibition in vivo at 10 mg/kg / inhibition in vivo at 25 mg/kg: Mus musculus, 1 h
Procedure: C. In Vivo Rodent Assay for Inhibition of TNF-α Production
Mice (BALB/cJ females, Jackson Laboratories) or rats (Lewis males, Charles River) were fasted for 30 min prior to oral dosing with 5-10 mL/kg of test compound at 5-50 mg/kg. Thirty minutes after dosing, the animals were injected intraperitoneally with LPS at 1 mg/kg and returned to their cages for 1 h. Animals were anesthetized by CO2, exsanguinated by cardiac puncture and whole blood collected (0.1-0.7 mL). The blood was allowed to clot and serum was transferred to a centrifuge tube. This sample was centrifuged, and serum was collected, aliquoted and frozen at −80° C. Samples were tested by commercial ELISA's for TNF-α (Endogen for mouse TNF-α and Biosource for rat TNF-α).

[2] = molecular target: T1, purified recombinant p38 (6×His-p38 expressed in E.coli) (Homo sapiens, UniProt Q16539); assay: p38 Inhibition In-Vitro Enzyme Assay; type: biochemical; details: myelin basic protein substrate, 33P-ATP; for inhibition at 10 µM: read-out: % p38 inhib @ 10 μM
T1 construct: 6xHis; made in house; host or cells: E. coli
T1 sequence (Q16539 whole entry): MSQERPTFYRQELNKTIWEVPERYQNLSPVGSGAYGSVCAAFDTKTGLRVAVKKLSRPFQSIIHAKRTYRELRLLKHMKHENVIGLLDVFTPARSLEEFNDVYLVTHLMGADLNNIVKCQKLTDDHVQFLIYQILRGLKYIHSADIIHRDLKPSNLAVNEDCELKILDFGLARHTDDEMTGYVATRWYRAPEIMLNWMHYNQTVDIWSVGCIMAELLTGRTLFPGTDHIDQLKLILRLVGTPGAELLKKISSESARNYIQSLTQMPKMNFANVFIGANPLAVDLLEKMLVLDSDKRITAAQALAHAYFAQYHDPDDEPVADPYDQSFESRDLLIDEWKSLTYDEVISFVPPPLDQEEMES
Procedure: A. p38 Inhibition In-Vitro Enzyme Assay
A solution (38 μL) of purified recombinant p38 (6×His-p38 expressed in E.coli), myelin basic protein substrate (determined empirically), and a buffer of pH 7.5 (Hepes:25 mM, MgCl2:10 mM, MnCl2:10 mM) were added to 92 wells of a 96-well round bottom polypropylene plate. The amount of enzyme was determined empirically based on the linear range of the assay and the acceptable signal to noise ratio. The remaining wells were used for control “CTRL”) and background (“BKG”). The CTRL was prepared with the enzyme, substrate buffer and 2% DMSO, and the BKG was prepared with substrate buffer and 2% DMSO.
A solution (12 μL) of the test compound in DMSO was added to the testing wells. […] The ATP/^33P-ATP solution (10 μL containing 50 μM unlabeled ATP and 1 μCi ^33P-ATP) was added to all wells and the completed plates were mixed and incubated at 30° C. for 30 min. Ice-cold 50% TCA/10 mM sodium phosphate (60 μL) was added to each well and the plates were kept on ice for 15 min. The contents of each well were transferred to the wells of a 96-well filterplate (Millipore, MultiScreen-DP) and the filterplate was placed on a vacuum manifold fitted with a waste collection tray. The wells were washed five times with 10% TCA/10 mM sodium phosphate (200 μL) under vacuum. MicroScint-20 scintillant was added, and the plates were sealed using Topseal-S sheets and counted in a Packard TopCount scintillation counter using a ^33P liquid program with color quench correction, where the output is in color quench-corrected cpm. The % inhibition of each test compound as shown in Table 2 was calculated by the following formula: % inhibition=[1−(sample−BKG)/(CTRL−BKG)]×100.
[…] In addition, the IC50 was calculated for some compounds using the Deltagraph 4-parameter curve-fitting program.

| Structure (SMILES) | IC50 (TNF-α production) [nM] | other results |
| --- | --- | --- |
| Fc1ccc(-c2c[nH]cc2-c2ccncc2)cc1F [compound 1] | 20 | TNF-α % Inhibition Mouse ([1]; 25 mg/kg): 96% |
| Cn1cc(-c2ccncc2)c(-c2ccc(F)c(F)c2)c1 [compound 2] | 30 | % p38 inhib @ 10 μM [2]: 15% |
| O=[N+]([O-])c1ccc(-n2cc(-c3ccncc3)c(-c3ccc(F)c(F)c3)c2)cc1 [compound 3] | 2 | % p38 inhib @ 10 μM [2]: 80%; TNF-α % Inhibition Mouse ([1]; 10 mg/kg): 81% |
| N#Cc1ccc(-n2cc(-c3ccncc3)c(-c3ccc(F)c(F)c3)c2)cc1 [compound 4] | 2 | inhibition at 10 µM [2]: 21% |
| CS(=O)(=O)c1ccc(-n2cc(-c3ccncc3)c(-c3ccc(F)c(F)c3)c2)cc1 [compound 5] | 30 | – |
| Cn1cc(-c2ccncc2)c(-c2cc(F)cc(F)c2)c1 [compound 6] | 175 | – |
| Cn1cc(-c2ccncc2)c(-c2ccc(F)c(C(F)(F)F)c2)c1 [compound 7] | 100 | inhibition in vivo at 10 mg/kg ([1]; 10 mg/kg): 61%; inhibition in vivo at 25 mg/kg ([1]; 25 mg/kg): 79% |
| Cn1cc(-c2ccncc2)c(-c2cc(F)cc(C(F)(F)F)c2)c1 [compound 8] | 1500 | – |
| Cn1cc(-c2ccncc2)c(-c2cccc(C(F)(F)F)c2)c1 [compound 9] | 125 | – |
| Cn1cc(-c2ccncc2)c(-c2cccc(F)c2)c1 [compound 10] | 125 | – |
| Cn1cc(-c2ccncc2)c(-c2cccc([N+](=O)[O-])c2)c1 [compound 11] | 100 | inhibition in vivo at 10 mg/kg ([1]; 10 mg/kg): 74%; inhibition in vivo at 25 mg/kg ([1]; 25 mg/kg): 94% |
| Oc1cccc(-c2c[nH]cc2-c2ccncc2)c1 [compound 12, 3-(3-Hydroxyphenyl)-4-(4-pyridyl)pyrrole Hydrobromide] | 300 | – |
| COc1cccc(-c2c[nH]cc2-c2ccncc2)c1 [compound 13, 3-(3-Methoxyphenyl)-4-(4-pyridyl)pyrrole] | 55 | – |
| COc1cccc(-c2cn(C)cc2-c2ccncc2)c1 [compound 14] | 55 | % p38 inhib @ 10 μM [2]: 43%; TNF-α % Inhibition Mouse ([1]; 10 mg/kg): 41%; TNF-α % Inhibition Mouse ([1]; 25 mg/kg): 71% |
| COc1cccc(-c2cn(-c3ccc([N+](=O)[O-])cc3)cc2-c2ccncc2)c1 [compound 15] | 20 | – |
| COc1cccc(-c2cn(-c3ccc(NC(C)=O)cc3)cc2-c2ccncc2)c1 [compound 16] | 75 | TNF-α % Inhibition Mouse ([1]; 25 mg/kg): 50% |
| COc1cccc(-c2cn(-c3ccc(N)cc3)cc2-c2ccncc2)c1 [compound 17] | 95 | TNF-α % Inhibition Mouse ([1]; 25 mg/kg): 66% |
| COc1cccc(-c2cn(-c3ccc(C#N)cc3)cc2-c2ccncc2)c1 [compound 18] | 15 | % p38 inhib @ 10 μM [2]: 23%; TNF-α % Inhibition Mouse ([1]; 10 mg/kg): 24%; TNF-α % Inhibition Mouse ([1]; 25 mg/kg): 60% |
| COc1cccc(-c2cn(-c3ccc(S(C)(=O)=O)cc3)cc2-c2ccncc2)c1 [compound 19] | 30 | TNF-α % Inhibition Mouse ([1]; 25 mg/kg): −127% |
| COc1cccc(-c2cn(-c3ccccn3)cc2-c2ccncc2)c1 [compound 20] | 150 | – |
| COc1cccc(-c2cn(-c3ccc([N+](=O)[O-])cc3[N+](=O)[O-])cc2-c2ccncc2)c1 [compound 21] | 80 | – |

| Structure (SMILES) | IC50 (TNF-α production) [nM] | other results |
| --- | --- | --- |
| COc1cccc(-c2cn(CCCc3ccccc3)cc2-c2ccncc2)c1 [compound 23] | 2000 | – |
| COc1cccc(-c2c[nH]cc2-c2ccncn2)c1 [compound 24] | 250 | – |
| Cn1cc(-c2ccncc2)c(-c2ccsc2)c1 [compound 25] | 900 | – |
| COc1ccc(-c2cn(C)cc2-c2ccncc2)cc1 [compound 26] | 2000 | – |
| Fc1ccc(-c2c[nH]cc2-c2ccncc2)cc1 [compound 27] | 90 | inhibition in vivo at 10 mg/kg ([1]; 10 mg/kg): 73%; inhibition in vivo at 25 mg/kg ([1]; 25 mg/kg): 100% |
| Cn1cc(-c2ccncc2)c(-c2ccc(F)cc2)c1 [compound 29, 1-Methyl-3-(4-fluorophenyl)-4-(4-pyridyl)pyrrole] | 200 | inhibition at 10 µM [2]: 34% |
| Nc1ccc(-n2cc(-c3ccc(F)cc3)c(-c3ccncc3)c2CCCc2ccccc2)cc1 [compound 33, 1-(4-Aminophenyl)-4-(4-fluorophenyl)-2-(3-phenylpropyl)-3-(4-pyridyl)pyrrole] | 8 | inhibition at 10 µM [2]: 51% |
| Cn1cc(-c2ccncc2)c(-c2ccncc2)c1 [compound 34] | 3000 | – |
| CSc1ccc(-c2cn(C)cc2-c2ccncc2)cc1 [compound 35] | 250 | – |
| CN(C)c1ccc(-c2cn(C)cc2-c2ccncc2)cc1 [compound 36] | 500 | – |
| Cn1cc(-c2ccncc2)c(-c2ccc([S+](C)[O-])cc2)c1 (stereo not shown) [compound 37] | 3000 | – |
| Cn1cc(-c2ccccc2)c(-c2ccncc2)c1 [compound 38] | 350 | – |
| Fc1ccc(-c2cn(CCCN3CCCCC3)c(CCCc3ccccc3)c2-c2ccncc2)cc1 [compound 39] | 5 | inhibition in vivo at 10 mg/kg ([1]; 10 mg/kg): 36%; inhibition in vivo at 25 mg/kg ([1]; 25 mg/kg): 100% |
| Fc1ccc(-c2cn(CCN3CCCCC3)c(CCCc3ccccc3)c2-c2ccncc2)cc1 [compound 40] | 3 | inhibition in vivo at 10 mg/kg ([1]; 10 mg/kg): 96%; inhibition in vivo at 25 mg/kg ([1]; 25 mg/kg): 96% |
| CN1CCCC1CCn1cc(-c2ccc(F)cc2)c(-c2ccncc2)c1CCCc1ccccc1 (stereo not shown) [compound 41] | 5 | inhibition in vivo at 10 mg/kg ([1]; 10 mg/kg): 100%; inhibition in vivo at 25 mg/kg ([1]; 25 mg/kg): 100% |
| CN1CCCC(Cn2cc(-c3ccc(F)cc3)c(-c3ccncc3)c2CCCc2ccccc2)C1 (stereo not shown) [compound 42] | 2 | inhibition in vivo at 10 mg/kg ([1]; 10 mg/kg): 100%; inhibition in vivo at 25 mg/kg ([1]; 25 mg/kg): 100% |
| Fc1ccc(-c2cn(CCN3CCOCC3)c(CCCc3ccccc3)c2-c2ccncc2)cc1 [compound 43] | 1 | inhibition in vivo at 10 mg/kg ([1]; 10 mg/kg): 93%; inhibition in vivo at 25 mg/kg ([1]; 25 mg/kg): 93% |
| CN(C)CCCn1cc(-c2ccc(F)cc2)c(-c2ccncc2)c1CCCc1ccccc1 [compound 44] | 8 | inhibition in vivo at 10 mg/kg ([1]; 10 mg/kg): 100%; inhibition in vivo at 25 mg/kg ([1]; 25 mg/kg): 100% |
| Fc1ccc(-c2cn(CCN3CCCC3)c(CCCc3ccccc3)c2-c2ccncc2)cc1 [compound 45] | 3 | inhibition in vivo at 10 mg/kg ([1]; 10 mg/kg): 99%; inhibition in vivo at 25 mg/kg ([1]; 25 mg/kg): 99% |
| OCCCc1[nH]cc(-c2ccc(F)cc2)c1-c1ccncc1 [compound 46, 4-(4-Fluorophenyl)-2-(3-hydroxypropyl)-3-(4-pyridyl)pyrrole] | 544 | – |
| Fc1ccc(-c2c[nH]c(CCCN3CCOCC3)c2-c2ccncc2)cc1 [compound 47, 4-(4-Fluorophenyl)-2-(3-morpholinopropyl)-3-(4-pyridyl)pyrrole] | 177 | inhibition in vivo at 25 mg/kg ([1]; 25 mg/kg): 77% |
